Measured values: patent publication US20260207720A1, “COMPOSITIONS AND METHODS FOR TREATING FUNGAL INFECTIONS” (MUCPharm Pty Ltd, priority 2022, published 2026)

Columns and labels:
Format in all cases: cell-based
[1] = system: Candida glabrata (clinical isolate); assay: Broth dilution susceptibility test, MIC and percent growth (Example 5); conditions: for MIC: 24 hours, 625 nm
Procedure: These experiments were conducted to determine the effect of BromAc alone and in combination with existing antifungal drugs against Candida glabrata (clinical isolate).
(§1) A. Preparation of inoculum: • 1. Candida glabrata was grown on Sabouraud dextrose agar (SDA) at 37° C. for 24-48 hrs. • 2. Following this, 5 colonies of 1 mm diameter were picked and suspended in 5 mL sterile saline (0.9% saline) and vortexed for 15 seconds. • 3. Working suspension is prepared as a 1:100 dilution from stock suspension with RPMI 1640 culture medium. • 4. The cell density is adjusted with a spectrophotometer to the transmittance produced by a 0.5 McFarland standard (0.08 to 0.1) OD at 625 nm wavelength.
(§2) • 1. For Bromelain, a stock concentration of 1 mg/ml Bromelain solution was prepared in RPMI media and diluted to test concentrations of 62.4, 31.2, 15.6 and 7.8 μg/ml in RPMI 1640 media. • 2. Acetylcysteine stock concentration is 200 mg/ml, diluted to 40, 20, 10, and 5 mg/ml concentrations in RPMI 1640 medium. • 3. These concentrations are prepared at 2× of the required concentrations in the final assay plate.
(§3) Antifungal stock concentrations are as follows— • 1. Amphotericin B, Stock concentration: 250 μg/ml in water. • 2. Posaconazole, Original concentration: 300 mg in 16.7 ml, Working stock concentration: 1 mg/ml in DMSO. • 3. Fluconazole, Original concentration: 100 mg in 50 ml, Working stock concentration: 1 mg/ml in DMSO. • 4. The final concentration was prepared in RPMI 1640 media and concentrations range was 0.01-0.5 μg/mL for amphotericin B, 0.01-2 μg/mL for posaconazole and 0.01-64 μg/mL for fluconazole. • 5. These concentrations were prepared at 2× of the required concentrations in the final assay plate.
(§4) • 1. Wells of the 96-well plates were inoculated with appropriate concentrations and volumes of drugs. • 2. Sterility control and growth controls are included in each plate. • 3. Each 96-well plate (except the control wells) contains 100 μL of double strength (twice the final antifungal drug) concentrations. • 4. 100 μL of the fungal suspension is added to 96-well plates (except the sterility control wells). • 5. The growth control wells contained 100 μL of sterile drug-free medium and 100 μL of inoculum suspension, while the sterility control wells contained 200 μl of sterile drug-free medium. • 6. Plates are then incubated at 37° C. and read at 625,430, and 530 nm wavelengths. • 7. Data from 24 hours and absorbance at 625 nm were used for analysis.

[2] = system: Candida Krusei (ATCC strain 6258); assay: Broth dilution susceptibility test, MIC and percent growth (Example 6); conditions: for effect at lower doses / concentrations compared to GC (in words): below the MIC (Posaconazole 0.03 μg/ml)
Procedure: as §1, §2, §3, §4
These experiments were conducted to determine the effect of BromAc alone and in combination with existing antifungal drugs against Candida Krusei (ATCC strain 6258).
The method used in these experiments is essentially the same as that described above in Example 5.

[3] = system: Aspergillus; assay: Susceptibility assay of antifungals with BromAc (Example 4); conditions: antifungal in combination with BromAc (5 mg/ml Acetylcysteine+12.5 μg/ml Bromelain) vs alone
Procedure: (§5) The in vitro antifungal properties of Bromelain, Acetylcysteine, BromAc, Amphotericin B, Isavuconazole, Fluconazole and Posaconazole were determined using a broth microdilution method in round bottom 96 well plates in accordance with standard procedures defined by the Clinical Laboratory Standards Institute (CLSI).
(§6) Unless otherwise described, fungal cultures were grown on potato dextrose agar plates at 35° C. until mature (appearance of conidia) and used to prepare suspensions in sterile water. Suspensions were diluted in RPMI 1:60. These suspensions were then added in equal volume to solutions containing the candidate species described above and incubated at 35° C. for 24 hr. Plates were then analysed for fungal growth inhibition and MIC values determined.
(§7) BromAc (5 mg/ml Acetylcysteine+12.5 μg/ml Bromelain) was used in combination with Amphotericin B, Isavuconazole, Posaconazole and Fluconazole. The MIC values of these four antifungal agents against the fungus described below were calculated and compared with their corresponding MIC values in the presence of BromAc, using the standard susceptibility assays described above.
(§8) The fungal strains set out in Table 2, all of which were sourced from a range of clinical isolates from Australian hospitals, were used in these experiments to gain a further understanding of the efficacy of BromAc in combination with Amphotericin B, Isavuconazole, Posaconazole and Fluconazole.

[4] = system: Candida auris; assay: as above; conditions: for isolates with more than 10× increase: Candida auris, antifungal with BromAc; for Observed inhibitory effect: Candida aurus, antifungal in combination with BromAc (5 mg/ml Acetylcysteine+12.5 μg/ml Bromelain) vs alone
Procedure: as §5, §6, §7, §8

[5] = system: Candida glabrata; assay: as above; conditions: for Observed inhibitory effect: antifungal in combination with BromAc (5 mg/ml Acetylcysteine+12.5 μg/ml Bromelain) vs alone; for isolates with more than a 10× increase in sensitivity: antifungal with BromAc
Procedure: as §5, §6, §7, §8

[6] = system: Candida kruseii; assay: as above; conditions: antifungal in combination with BromAc (5 mg/ml Acetylcysteine+12.5 μg/ml Bromelain) vs alone
Procedure: as §5, §6, §7, §8

[7] = system: Candida parapslosis; assay: as above; conditions: for increase in sensitivity: Candida parapsilosis, antifungal with BromAc; for Observed inhibitory effect: Candida parapslosis, antifungal in combination with BromAc (5 mg/ml Acetylcysteine+12.5 μg/ml Bromelain) vs alone
Procedure: as §5, §6, §7, §8

[8] = system: Candida tropicalis; assay: as above; conditions: for Observed inhibitory effect: antifungal in combination with BromAc (5 mg/ml Acetylcysteine+12.5 μg/ml Bromelain) vs alone; for isolates with more than a 10× increase in sensitivity: antifungal with BromAc
Procedure: as §5, §6, §7, §8

[9] = system: Cryptococcus; assay: as above; conditions: for Observed inhibitory effect: antifungal in combination with BromAc (5 mg/ml Acetylcysteine+12.5 μg/ml Bromelain) vs alone; for isolates with more than 10× increase: antifungal with BromAc
Procedure: as §5, §6, §7, §8

[10] = system: Cunninghamella; assay: as above; conditions: for Observed inhibitory effect: antifungal in combination with BromAc (5 mg/ml Acetylcysteine+12.5 μg/ml Bromelain) vs alone
Procedure: as §5, §6, §7, §8

[11] = system: Fusarium; assay: as above; conditions: antifungal in combination with BromAc (5 mg/ml Acetylcysteine+12.5 μg/ml Bromelain) vs alone
Procedure: as §5, §6, §7, §8

[12] = system: Licthemia; assay: as above; conditions: antifungal in combination with BromAc (5 mg/ml Acetylcysteine+12.5 μg/ml Bromelain) vs alone
Procedure: as §5, §6, §7, §8

[13] = system: Lomentospora; assay: as above; conditions: antifungal in combination with BromAc (5 mg/ml Acetylcysteine+12.5 μg/ml Bromelain) vs alone
Procedure: as §5, §6, §7, §8

[14] = system: Mucor circinelloides; assay: as above; conditions: for Observed inhibitory effect: antifungal in combination with BromAc (5 mg/ml Acetylcysteine+12.5 μg/ml Bromelain) vs alone; for isolates with increased sensitivity: antifungal with BromAc
Procedure: as §5, §6, §7, §8

[15] = system: Scedosporium; assay: as above; conditions: antifungal in combination with BromAc (5 mg/ml Acetylcysteine+12.5 μg/ml Bromelain) vs alone
Procedure: as §5, §6, §7, §8

| SMILES | effect at lower doses / concentrations compared to GC (in words) [2] | Observed inhibitory effect [3] | isolates with more than 10× increase [4] | Observed inhibitory effect [4] | Observed inhibitory effect [5] | isolates with more than a 10× increase in sensitivity [5] | Observed inhibitory effect [6] | increase in sensitivity [7] | Observed inhibitory effect [7] | Observed inhibitory effect [8] | isolates with more than a 10× increase in sensitivity [8] | Observed inhibitory effect [9] | isolates with more than 10× increase [9] | Observed inhibitory effect [10] | Observed inhibitory effect [11] | Observed inhibitory effect [12] | Observed inhibitory effect [13] | Observed inhibitory effect [14] | isolates with increased sensitivity [14] | Observed inhibitory effect [15] | also measured |
| --- | --- | --- | --- | --- | --- | --- | --- | --- | --- | --- | --- | --- | --- | --- | --- | --- | --- | --- | --- | --- | --- |
| C[C@@H]1[C@H](O)[C@@H](C)/C=C/C=C/C=C/C=C/C=C/C=C/C=C/[C@H](O[C@@H]2O[C@H](C)[C@@H](O)[C@H](N)[C@@H]2O)C[C@@H]2O[C@](O)(C[C@@H](O)C[C@@H](O)[C@H](O)CC[C@@H](O)C[C@@H](O)CC(=O)O[C@H]1C)C[C@H](O)[C@H]2C(=O)O [Amphotericin B] | significant inhibition | No effect | 2 of 5 | Moderate (Moderate = 1-5x inhibitory effect) | Strong (Strong = 5-10x (or greater) inhibitory effect) | 5 of 5 | Strong (Strong = 5-10x (or greater) inhibitory effect) | ~10 × | Strong (Strong = 5-10x (or greater) inhibitory effect) | Strong (Strong = 5-10x (or greater) inhibitory effect) | 4 of 5 | Strong (Strong = 5-10x (or greater) inhibitory effect) | 5 of 5 | Possible | No effect | Moderate (Moderate = 1-5x inhibitory effect) | No effect | Strong (Strong = 5-10x (or greater) inhibitory effect) | 2 of 2 | No effect | MIC ([1]; Nakaseomyces glabratus, measured at 90% growth inhibition): 1 µg/mL; MIC ([2]; Pichia kudriavzevii, ATCC6258, close to 90% inhibition): 1 µg/mL |
| CC[C@@H]([C@H](C)O)n1ncn(-c2ccc(N3CCN(c4ccc(OC[C@@H]5CO[C@@](Cn6cncn6)(c6ccc(F)cc6F)C5)cc4)CC3)cc2)c1=O [Posaconazole] | no significant inhibition | Moderate (Moderate = 1-5x inhibitory effect) | 4 of 5 | Strong (Strong = 5-10x (or greater) inhibitory effect) | Strong (Strong = 5-10x (or greater) inhibitory effect) | 5 of 5 | Strong (Strong = 5-10x (or greater) inhibitory effect) | more than 10 × | Strong (Strong = 5-10x (or greater) inhibitory effect) | Strong (Strong = 5-10x (or greater) inhibitory effect) | 4 of 5 | Strong (Strong = 5-10x (or greater) inhibitory effect) | 5 of 5 | Moderate (Moderate = 1-5x inhibitory effect) | No effect | Moderate (Moderate = 1-5x inhibitory effect) | No effect | Strong (Strong = 5-10x (or greater) inhibitory effect) | 1 of 2 | Possible | MIC ([1]; Nakaseomyces glabratus, 50% growth inhibition): 2 µg/mL; inhibition at 2 µg/mL ([1]; Nakaseomyces glabratus, at 2 μg/ml, read-out: decline in C. glabrata viability over the growth control): 25%; effect on C. glabrata viability / growth (in words) ([1]; at the concentrations tested, FIGS. 3-7): weaker antifungal effect; effect at lower concentration compared to growth control (in words) ([1]; concentrations lower than the MIC): slight decline; MIC ([2]; Pichia kudriavzevii, ATCC6258, FIG. 10): 1 µg/mL; inhibition at 1 µg/mL ([2]; Pichia kudriavzevii, ATCC6258, Posaconazole 1 ug/ml, Fluconazole 32 μg/ml, read-out: activity (growth inhibition) at its MIC): > 50%; interaction with BromAc (in words) ([10]; antifungal with BromAc): some synergy |
